# Measurements as given in US11780826B2 (Amgen Inc., priority 2017, dated 2023).
# Test system: Bovine cardiac myofibrils
# Experiment: In vitro model of dose-dependent myofibril ATPase modulation (AC1.4, pyruvate kinase/lactate dehydrogenase-coupled ATPase assay at pCa25)
# Type: biochemical
# Conditions: concentration at which ATPase activity was 1.4-fold higher than the bottom of the dose curve, mean of a minimum of two independent tests
# How it was run: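 Coupled-enzyme ATPase on bovine heart myofibrils, 1 mM ATP, EGTA/CaCl2 buffered; 340 nm readout.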
row,Structure (SMILES),AC1.4 [µM]
1,"CC(C)(C)Nc1ccc(S(C)(=O)=O)cc1C(=O)N1[C@@H](C(=O)N[C@@H](c2ccc(C(F)(F)F)cc2F)C2CC2)C[C@H]2C[C@H]21 [Example 101, (1R,3R,5R)-N-((R)-cyclopropyl(2-fluoro-4-(trifluoromethyl)phenyl)methyl)-2-(2-((2-methyl-2-propanyl)amino)-5-(methylsulfonyl)benzoyl)-2-azabicyclo[3.1.0]hexane-3-carboxamide]",0.1559
2,"N#CC1CN(S(=O)(=O)c2cccc(C(=O)N3CCC[C@@H]3C(=O)NCc3ccc(C(F)F)cc3)c2)C1 [Example 102, 1-((3-((3-cyano-1-azetidinyl)sulfonyl)phenyl)carbonyl)-N-(4-(difluoromethyl)benzyl)-D-prolinamide]",0.1574
3,"N#CC1CN(S(=O)(=O)N2C[C@H]3C[C@@H]2[C@H](C(=O)N2CCC[C@@H]2C(=O)NCc2ccc(C(F)(F)F)cc2F)C3)C1 [Example 103, 1-(((1R,4R,6R)-2-((3-cyano-1-azetidinyl)sulfonyl)-2-azabicyclo[2.2.1]hept-6-yl)carbonyl)-N-(2-fluoro-4-(trifluoromethyl)benzyl)-D-prolinamide]",0.1585
4,"C[C@@H](NC(=O)[C@H]1CCCN1C(=O)[C@H]1CCCN(S(=O)(=O)N2CC(C#N)C2)C1)c1ccc(C(F)F)cc1F [Example 104, 1-(((3S)-1-((3-cyano-1-azetidinyl)sulfonyl)-3-piperidinyl)carbonyl)-N-((1R)-1-(4-(difluoromethyl)-2-fluorophenyl)ethyl)-D-prolinamide]",0.1611
5,"N#CC1CN(S(=O)(=O)c2cccc(C(=O)N3CCC[C@@H]3C(=O)N[C@@H](CO)c3ccc(Cl)c(F)c3)c2)C1 [Example 105, N-((1R)-1-(4-chloro-3-fluorophenyl)-2-hydroxyethyl)-1-(3-((3-cyano-1-azetidinyl)sulfonyl)benzoyl)-D-prolinamide]",0.1638
6,"Cc1ccc(CNC(=O)[C@H]2CCCN2C(=O)c2cccc(S(=O)(=O)N3CC(C#N)C3)c2)cc1 [Example 106, 1-((3-((3-cyano-1-azetidinyl)sulfonyl)phenyl)carbonyl)-N-(4-methylbenzyl)-D-prolinamide]",0.164
7,"N#CC1CN(S(=O)(=O)N2CCC[C@H](C(=O)N3CCC[C@@H]3C(=O)N[C@H](c3ccc(C(F)(F)F)cc3)C3CC3)C2)C1 [Example 107, 1-(((3S)-1-((3-cyano-1-azetidinyl)sulfonyl)-3-piperidinyl)carbonyl)-N-((S)-cyclopropyl(4-(trifluoromethyl)phenyl)methyl)-D-prolinamide]",0.1642
8,"CCNc1ccc(C)cc1C(=O)N1CCC[C@@H]1C(=O)N[C@@H](c1ccc(C(F)(F)F)cc1F)C1CC1 [Example 108, N-((R)-cyclopropyl(2-fluoro-4-(trifluoromethyl)phenyl)methyl)-1-(2-(ethylamino)-5-methylbenzoyl)-D-prolinamide]",0.1689
9,"N#CC1CN(S(=O)(=O)N2CCC[C@H](C(=O)N3CCOC[C@@H]3C(=O)NCc3ccc(C(F)(F)F)cc3)C2)C1 [Example 109, (3R)-4-(((3S)-1-((3-cyano-1-azetidinyl)sulfonyl)-3-piperidinyl)carbonyl)-N-(4-(trifluoromethyl)benzyl)-3-morpholinecarboxamide]",0.1712
10,"CCNc1ccc(C)cc1C(=O)N1C[C@@H](O)C[C@@H]1C(=O)N[C@@H](c1cc(F)c(Cl)cc1F)C1COC1 [Example 110, (4S)-N-((R)-(4-chloro-2,5-difluorophenyl)(3-oxetanyl)methyl)-1-(2-(ethylamino)-5-methylbenzoyl)-4-hydroxy-D-prolinamide]",0.1732
11,"O=C(N[C@@H](c1cc(F)c(Cl)cc1F)C1CC1)[C@H]1C[C@H]2C[C@H]2N1C(=O)c1cccc(S(=O)(=O)CCO)c1 [Example 112, (1R,3R,5R)-N-((R)-(4-chloro-2,5-difluorophenyl)(cyclopropyl)methyl)-2-(3-((2-hydroxyethyl)sulfonyl)benzoyl)-2-azabicyclo[3.1.0]hexane-3-carboxamide]",0.1762
12,"CN(C)S(=O)(=O)c1cccc(C(=O)N2CCC[C@@H]2C(=O)N[C@@H](c2ccc(Cl)c(F)c2)C2CC2)c1 [Example 114, N-((R)-(4-chloro-3-fluorophenyl)(cyclopropyl)methyl)-1-(3-(dimethylsulfamoyl)benzoyl)-D-prolinamide]",0.1771
13,"O=C(N[C@@H](c1cc(F)c(C(F)(F)F)cc1F)C1CC1)[C@H]1C[C@H]2C[C@H]2N1C(=O)c1cccc(C(F)(F)F)c1 [Example 115, (1R,3R,5R)-N-((R)-cyclopropyl(2,5-difluoro-4-(trifluoromethyl)phenyl)methyl)-2-(3-(trifluoromethyl)benzoyl)-2-azabicyclo[3.1.0]hexane-3-carboxamide]",0.1774
14,N#CC1CN(S(=O)(=O)N2CCO[C@H](C(=O)N3CCC[C@@H]3C(=O)NCc3ccc(C(F)(F)F)cc3F)C2)C1 [Example 116],0.179
15,"N#CC1CN(S(=O)(=O)N2CCC[C@H](C(=O)N3CCC[C@@H]3C(=O)N[C@@H](c3ccc(S(F)(F)(F)(F)F)cc3)C3CC3)C2)C1 [Example 117, 1-(((3S)-1-((3-cyano-1-azetidinyl)sulfonyl)-3-piperidinyl)carbonyl)-N-((R)-cyclopropyl(4-(pentafluoro-lambda~6~-sulfanyl)phenyl)methyl)-D-prolinamide]",0.179
16,"CS(=O)(=O)c1ccc(NCCO)c(C(=O)N2[C@@H](C(=O)N[C@@H](c3ccc(C(F)(F)F)cc3F)C3CC3)C[C@H]3C[C@H]32)c1 [Example 118, (1R,3R,5R)-N-((R)-cyclopropyl(2-fluoro-4-(trifluoromethyl)phenyl)methyl)-2-(2-((2-hydroxyethyl)amino)-5-(methylsulfonyl)benzoyl)-2-azabicyclo[3.1.0]hexane-3-carboxamide]",0.1795
17,"Cc1cc(Cl)ccc1CNC(=O)[C@H]1CCCN1C(=O)[C@H]1CCCN(S(=O)(=O)N2CC(C#N)C2)C1 [Example 119, N-(4-chloro-2-methylbenzyl)-1-(((3S)-1-((3-cyano-1-azetidinyl)sulfonyl)-3-piperidinyl)carbonyl)-D-prolinamide]",0.1819
18,"C[C@@H](NC(=O)[C@H]1CCCN1C(=O)c1cccc(S(=O)(=O)N2CC(C#N)C2)c1)c1ccc(C(F)F)cc1 [Example 120, 1-((3-((3-cyano-1-azetidinyl)sulfonyl)phenyl)carbonyl)-N-((1R)-1-(4-(difluoromethyl)phenyl)ethyl)-D-prolinamide]",0.1826
19,"C[C@H](C(=O)N[C@H](C)c1ccc(C(F)(F)F)cc1)N(C)C(=O)c1cccc(S(=O)(=O)N2CC(C#N)C2)c1 [Example 121, 3-((3-cyano-1-azetidinyl)sulfonyl)-N-methyl-N-((1R)-1-methyl-2-oxo-2-(((1R)-1-(4-(trifluoromethyl)phenyl)ethyl)amino)ethyl)benzamide]",0.1828
20,"N#CC1CN(S(=O)(=O)c2cccc(C(=O)N3C[C@H](F)C[C@@H]3C(=O)NCc3ccc(C(F)(F)F)cc3)c2)C1 [Example 122, (4R)-1-((3-((3-cyano-1-azetidinyl)sulfonyl)phenyl)carbonyl)-4-fluoro-N-(4-(trifluoromethyl)benzyl)-D-prolinamide]",0.1858
21,"N#CC1CN(S(=O)(=O)n2cc(C(=O)N3CCC[C@@H]3C(=O)NCc3ccc(C(F)(F)F)cc3)cn2)C1 [Example 123, 1-((1-((3-cyano-1-azetidinyl)sulfonyl)-1H-pyrazol-4-yl)carbonyl)-N-(4-(trifluoromethyl)benzyl)-D-prolinamide]",0.189
22,"CC[C@@H](NC(=O)[C@H]1CCCN1C(=O)c1cccc(S(=O)(=O)N2CC(C#N)C2)c1)c1cc(F)cc(F)c1 [Example 124, 1-(3-((3-cyano-1-azetidinyl)sulfonyl)benzoyl)-N-((1R)-1-(3,5-difluorophenyl)propyl)-D-prolinamide]",0.1998
23,"CS(=O)(=O)c1ccc(C(=O)N2CCCC[C@@H]2C(=O)N[C@@H](c2cc(F)c(Cl)cc2F)C2CC2)cn1 [Example 125, (2R)-N-((R)-(4-chloro-2,5-difluorophenyl)(cyclopropyl)methyl)-1-((6-(methylsulfonyl)-3-pyridinyl)carbonyl)-2-piperidinecarboxamide]",0.2026
24,"N#CC1CN(S(=O)(=O)c2cccc(C(=O)N3C[C@H](O)C[C@@H]3C(=O)NCc3ccc(C(F)(F)F)cc3)c2)C1 [Example 126, (4R)-1-((3-((3-cyano-1-azetidinyl)sulfonyl)phenyl)carbonyl)-4-hydroxy-N-(4-(trifluoromethyl)benzyl)-D-prolinamide]",0.2062
25,"O=C(N[C@@H](c1cc(F)c(Cl)cc1F)C1CC1)[C@H]1C[C@H]2C[C@H]2N1C(=O)c1cccc(C(F)(F)F)c1 [Example 127, (1R,3R,5R)-N-((R)-(4-chloro-2,5-difluorophenyl)(cyclopropyl)methyl)-2-(3-(trifluoromethyl)benzoyl)-2-azabicyclo[3.1.0]hexane-3-carboxamide]",0.2088
26,"CCS(=O)(=O)c1cccc(C(=O)N2[C@@H](C(=O)N[C@@H](c3ccc(C(F)(F)F)cc3F)C3COC3)C[C@H]3C[C@H]32)c1 [Example 128, (1R,3R,5R)-2-(3-(ethylsulfonyl)benzoyl)-N-((R)-(2-fluoro-4-(trifluoromethyl)phenyl)(3-oxetanyl)methyl)-2-azabicyclo[3.1.0]hexane-3-carboxamide]",0.2103
27,"CS(=O)(=O)c1cccc(C(=O)N2CSC[C@@H]2C(=O)N[C@@H](c2ccc(C(F)(F)F)cc2F)C2CC2)c1 [Example 129, (4S)-N-((R)-cyclopropyl(2-fluoro-4-(trifluoromethyl)phenyl)methyl)-3-(3-(methylsulfonyl)benzoyl)-1,3-thiazolidine-4-carboxamide]",0.2119
28,"Cc1ccc(CNC(=O)[C@H]2CCCN2C(=O)[C@H]2CCCN(S(=O)(=O)N3CC(C#N)C3)C2)cc1Cl [Example 130, N-(3-chloro-4-methylbenzyl)-1-(((3S)-1-((3-cyano-1-azetidinyl)sulfonyl)-3-piperidinyl)carbonyl)-D-prolinamide]",0.214
